The results in this text go back to patent publication US9090658B2, “Base-substituted benzylamine analogs for use as coagulation factor Xa inhibitors, the production and use thereof” (The Medicines Company (Leipzig) GmbH, priority 2003, dated 2015).

Experiment [1] has as its target Thrombin (UniProt P00735). The experiment can be described thus: Determination of the inhibitory constants for thrombin (method of Stürzebecher et al. 1997). The format is biochemical. From the text:
The Ki values are the average of at least three determinations.

For experiment [2], the target named is T1, factor Xa (Bos taurus, UniProt P00743).
T1 construct: purchased Diagnostic Reagents Ltd, Thame, GB
T1 sequence (P00743 234-492 limits assumed): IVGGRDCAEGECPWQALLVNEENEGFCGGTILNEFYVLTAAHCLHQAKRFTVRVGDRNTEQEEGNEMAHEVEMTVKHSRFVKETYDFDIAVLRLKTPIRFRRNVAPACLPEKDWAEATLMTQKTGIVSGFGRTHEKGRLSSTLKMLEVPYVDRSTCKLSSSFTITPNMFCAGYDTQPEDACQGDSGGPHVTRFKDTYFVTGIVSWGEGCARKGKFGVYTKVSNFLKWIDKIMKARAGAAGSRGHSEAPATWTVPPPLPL
T1 sequence (P00743 41-180 partner limits assumed): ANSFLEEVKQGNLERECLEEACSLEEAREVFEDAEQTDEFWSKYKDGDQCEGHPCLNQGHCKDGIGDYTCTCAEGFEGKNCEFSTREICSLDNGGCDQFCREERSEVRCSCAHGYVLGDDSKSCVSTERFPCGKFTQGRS
The experiment in a line: Determination of the inhibitory constants for factor Xa (chromogenic substrate Moc-D-Nle-Gly-Arg-pNA, Dixon method). The format is biochemical, bovine. The settings on record: for Ki: bovine factor Xa, 25° C., pH 8.0, average of at least three determinations. As for the experimental part:
Determination of the inhibitory Effect
To determine the inhibitory effect, 200 μl of this buffer (0.05 M 0.154 M NaCl, 5% Ethanol, pH 8.0; contains the inhibitor), 25 μl of substrate (Moc-D-Nle-Gly-Arg-pNA in H2O; Pentapharm Ltd., Basle, Switzerland) and 50 μl of factor Xa (bovine, Diagnostic Reagents Ltd, thame, GB) were incubated at 25° C. After 3 min, the reaction was stopped By adding 25 μl of acetic acid (50%), and the absorption at 405 nm was determined using a Microplate Reader (MR 5000, Dynatech, Denkendorf, Germany). The Ki values were Founder by the Dixon method (boichem. J. 55, 170-171, 1953) by linear regression using a Computer program. The Ki values are the average of at least three determinations. The Thrombin inhibitions was determined in analogy to a method described earlier (Stürzebecher et al., J. Med. Chem. 40, 3091-3099, 1997).

Structures are written as SMILES. Structures can show the parent of a compound that is named as a salt.

As to `COC(=O)c1ccc(CS(=O)(=O)NC(CCc2ccncc2)C(=O)NCC(=O)NCc2ccc(C(=N)N)cc2)cc1` (stereo not shown) [Compound 46], the Ki in experiment [1] turned out to be 7600 nM; in experiment [2], 9.8 nM. The “selectivity ratio SR (SR = Ki thrombin/Ki factor Xa)” value (“selectivity ratio SR” below) in experiment [2] is given as 775.
For `N=C(N)c1ccc(CNC(=O)CNC(=O)[C@H](NS(=O)(=O)Cc2ccccc2)C2Cc3ccccc3C2)cc1` [Compound 21] the same measures were 150 nM, 29 nM and 5.2.
Turning to `N=C(N)c1ccc(CNC(=O)CNC(=O)[C@@H](CCc2ccccc2)NS(=O)(=O)Cc2ccc(CC(=O)O)cc2)cc1` [Compound 17], in experiment [1], the Ki is 14000 nM. Also, in experiment [2], the “selectivity ratio SR” value was 259 and affinity was put at a Ki of 54 nM.
Turning to `N=C(N)c1ccc(CNC(=O)[C@H](CCC(=O)O)NC(=O)[C@@H](CCc2ccccc2)NS(=O)(=O)Cc2ccccc2)cc1` [Compound 50], the Ki stood at 15000 nM in experiment [1] and 13 nM in experiment [2]. Further, the “selectivity ratio SR” value in experiment [2] is 1153.
Taken in the same sequence, the figures for `N=C(N)c1ccc(CNC(=O)CNC(=O)[C@@H](CCc2ccc(O)cc2)NS(=O)(=O)Cc2ccc([N+](=O)[O-])cc2)cc1` [Compound 36] were 860 nM, 5.2 nM and 165.
Taken in the same sequence, the figures for `N=C(N)c1ccc(CNC(=O)CNC(=O)[C@@H](CCc2ccccc2)NS(=O)(=O)Cc2cccc(O)c2)cc1` [Compound 42] were 1500 nM, 7.2 nM and 288.
Taken in the same sequence, the figures for `N=C(N)c1ccc(CNC(=O)[C@H](CCC(=O)O)NC(=O)[C@@H](CCc2ccc(O)cc2)NS(=O)(=O)Cc2ccccc2)cc1` [Compound 34] were 19000 nM, 3.7 nM and 5135.
Take `N=C(N)c1ccc(CNC(=O)CNC(=O)C(CCc2ccncc2)NS(=O)(=O)Cc2ccc(C(=O)O)cc2)cc1` (stereo not shown) [Compound 48]: the Ki in experiment [2] was determined as 10 nM.
In experiment [1], `CS(=O)(=O)N[C@H](CCc1ccccc1)C(=O)NCC(=O)NCc1ccc(C(=N)N)cc1` [Compound 13] displayed a Ki of 1300 nM. Besides, in experiment [2], the “selectivity ratio SR” value is given as 1.2 and the affinity, expressed as Ki, was 1100 nM.
For `N=C(N)c1ccc(CNC(=O)[C@H](CCC(=O)O)NC(=O)[C@@H](CCc2ccncc2)NS(=O)(=O)Cc2ccc(N)cc2)cc1` [Compound 26] the same measures were 25000 nM, 14705 and 1.7 nM.
For `N=C(N)c1ccc(CNC(=O)CNC(=O)[C@@H](CCc2ccccc2)NS(=O)(=O)Cc2cccc(N)c2)cc1` [Compound 45], in experiment [1], the Ki was 1400 nM. Also, in experiment [2], the “selectivity ratio SR” value was found to be 150 and the affinity, expressed as Ki, was 9.3 nM.
For `N=C(N)c1ccc(CNC(=O)[C@H](CO)NC(=O)[C@@H](CCc2ccccc2)NS(=O)(=O)Cc2ccncc2)cc1` [Compound 7, 4-PMs-dhomoPhe-Gly-4Amba×2 TFA] the same measures were 3300 nM, 7.2 and 460 nM.
Turning to `N=C(N)c1ccc(CNC(=O)[C@H](CCC(=O)O)NC(=O)[C@@H](CCc2ccc(O)cc2)NS(=O)(=O)Cc2ccc(N)cc2)cc1` [Compound 30], the Ki in experiment [1] was found to be 78000 nM; in experiment [2] it was 3.4 nM. For the same compound, the “selectivity ratio SR” value in experiment [2] was 22940.
For `N=C(N)c1ccc(CNC(=O)CNC(=O)[C@@H](CCc2ccc(O)cc2)NS(=O)(=O)Cc2ccccc2)cc1` [Compound 5, Bzls-d-homoTyr-Gly-4Amba×TFA] the same measures were 1500 nM, 2.7 nM and 556.
Taken in the same sequence, the figures for `N=C(N)c1ccc(CNC(=O)CNC(=O)[C@@H](CCc2ccccc2)NS(=O)(=O)NC2CCCCC2)cc1.O=C(O)C(F)(F)F` [Compound 18] were 5400 nM, 110 nM and 49.
For `N=C(N)c1ccc(CNC(=O)[C@H](CCCC(=O)O)NC(=O)[C@@H](CCc2ccccc2)NS(=O)(=O)Cc2ccccc2)cc1` [Compound 53] the same measures were 800 nM, 30 nM and 27.
Consider `N=C(N)c1ccc(CNC(=O)CNC(=O)C(CCc2cc[n+]([O-])cc2)NS(=O)(=O)Cc2ccccc2)cc1` (stereo not shown) [Compound 60], for which affinity in experiment [1] was put at a Ki of 3500 nM. Besides, in experiment [2], the “selectivity ratio SR” value is reported as 730 and the affinity, expressed as Ki, was 4.8 nM.
For `CC(C)(C)OC(=O)CC[C@H](NC(=O)[C@@H](CCc1ccncc1)NS(=O)(=O)Cc1ccc([N+](=O)[O-])cc1)C(=O)NCc1ccc(C(=N)N)cc1` [Compound 51] the same measures were 1400 nM, 87 and 16 nM.
For `N=C(N)c1ccc(CNC(=O)CNC(=O)[C@@H](CCc2ccncc2)NS(=O)(=O)Cc2ccccc2)cc1` [Compound 22] the same measures were 700 nM, 259 and 2.7 nM.
For `N=C(N)c1ccc(CNC(=O)CNC(=O)[C@@H](CCc2ccccc2)NS(=O)(=O)Cc2ccccc2)cc1` [Compound 11] the same measures were 47 nM, 7.2 and 6.5 nM.
Regarding `N=C(N)c1ccc(CNC(=O)[C@H](CO)NC(=O)[C@@H](CCc2ccc(O)cc2)NS(=O)(=O)Cc2ccccc2)cc1` [Compound 6, Bzls-d-homoTyr-Ser-4Amba×TFA], the Ki in experiment [1] was 1400 nM; in experiment [2], 19 nM. For the same compound, in experiment [2], the “selectivity ratio SR” value is given as 74.
For `N=C(N)c1ccc(CNC(=O)CNC(=O)C(CCc2cccnc2)NS(=O)(=O)Cc2ccccc2)cc1` (stereo not shown) [Compound 24] the same measures were 2000 nM, 5 nM and 400.
For `N=C(N)c1ccc(CNC(=O)CNC(=O)[C@@H](CCc2ccccc2)NS(=O)(=O)Cc2ccccc2N)cc1` [Compound 19] the same measures were 920 nM, 6.7 nM and 137.
Taken in the same sequence, the figures for `N=C(N)c1ccc(CNC(=O)CNC(=O)[C@@H](Cc2ccccc2)NS(=O)(=O)Cc2ccccc2)cc1` [Compound 10] were 68 nM, 26 nM and 2.6.
As for `N=C(N)c1ccc(CNC(=O)CNC(=O)[C@@H](CCc2ccccc2)NS(=O)(=O)Cc2ccccn2)cc1` [Compound 8, 2-PMs-d-homoPhe-Gly-4Amba×2 TFA], the Ki in experiment [1] was found to be 4900 nM. Further, in experiment [2], the “selectivity ratio SR” value is listed as 96 and the affinity corresponds to a Ki of 51 nM.
`CCOC(=O)CC[C@H](NC(=O)[C@@H](CCc1ccc(O)cc1)NS(=O)(=O)Cc1ccccc1)C(=O)NCc1ccc(C(=N)N)cc1` [Compound 35] gave a Ki in experiment [1] of 1000 nM. Moreover, in experiment [2], the “selectivity ratio SR” value is 200 and the affinity corresponds to a Ki of 5 nM.
Take `N=C(N)c1ccc(CNC(=O)CNC(=O)[C@@H](CCc2ccccc2)NS(=O)(=O)Cc2ccccc2[N+](=O)[O-])cc1` [Compound 20]: the Ki is 1200 nM in experiment [1] and 26 nM in experiment [2]. For the same compound, the “selectivity ratio SR” value in experiment [2] was found to be 46.
As to `N=C(N)c1ccc(CNC(=O)[C@H](CCC(=O)O)NC(=O)[C@@H](CCc2ccncc2)NS(=O)(=O)Cc2ccc(N)cc2)cc1` [Compound 52], the Ki in experiment [1] was 84000 nM. For the same compound, in experiment [2], the “selectivity ratio SR” value is listed as 5250 and the affinity, expressed as Ki, was 16 nM.
In turn, `N=C(N)c1ccc(CNC(=O)CNC(=O)C(CCc2ccncc2)NS(=O)(=O)Cc2ccc(N)cc2)cc1` (stereo not shown) [Compound 28] came in with a Ki in experiment [1] of 1000 nM. For the same compound, in experiment [2], the “selectivity ratio SR” value was determined as 454 and the Ki came to 2.2 nM.
For `N=C(N)c1ccc(CNC(=O)[C@H](CCC(=O)O)NC(=O)C(CCc2ccncc2)NS(=O)(=O)Cc2ccc([N+](=O)[O-])cc2)cc1` (stereo partly shown) [Compound 37] the same measures were 35000 nM, 6250 and 5.6 nM.
Consider `N=C(N)c1ccc(CNC(=O)[C@H](CO)NC(=O)[C@H](CCc2ccncc2)NS(=O)(=O)Cc2ccccc2)cc1` [Compound 3b, Bzls-D,L-homoAla(4-Pyr)-Ser-4Amba×2 TFA], for which the Ki in experiment [1] was determined as 4600 nM; in experiment [2], 95 nM. For the same compound, the “selectivity ratio SR” value in experiment [2] stood at 48.4.
For `N=C(N)c1ccc(CNC(=O)[C@H](CCC(=O)OCc2ccccc2)NC(=O)C(CCc2ccncc2)NS(=O)(=O)Cc2ccccc2)cc1` (stereo partly shown) [Compound 39] the same measures were 170 nM, 6.4 nM and 26.
Turning to `N=C(N)c1ccc(CNC(=O)CNC(=O)[C@@H](CCc2ccccc2)NCC(=O)O)cc1` [Compound 64], in experiment [1], the Ki came to 28000 nM. In experiment [2], the “selectivity ratio SR” value worked out at 32 and the affinity, expressed as Ki, was 870 nM.
For `N=C(N)c1ccc(CNC(=O)CNC(=O)[C@@H](CCc2ccccc2)NS(=O)(=O)Cc2cc[n+]([O-])cc2)cc1` [Compound 59] the same measures were 16000 nM, 16 and 970 nM.
